Data reported in patent publication US6743598B2, “Methods for the identification of fungal glucose utilization inhibitors and antifungal agents” (priority 2001, dated 2004).
“Also recorded” adds a separate entry of the source.

Key:
[1] = target: T. brucei PGI (Trypanosoma brucei brucei, UniProt P13377); settings: cited from earlier work
[2] = target: Yeast PGI (Saccharomyces cerevisiae, UniProt P12709); settings: cited from earlier work
[3] = target: yeast phosphoglucose isomerase (Saccharomyces cerevisiae, UniProt P12709); settings: cited from earlier work
[4] = target: Rabbit phosphoglucose isomerase (Oryctolagus cuniculus, UniProt Q9N1E2); settings: low ionic strength, cited from earlier work
[5] = target: T. brucei phosphoglucose isomerase (Trypanosoma brucei brucei, UniProt P13377); settings: cited from earlier work
[6] = system: A. fumigatus phosphoglucose isomerase, ketol-isomerase, and N-acetyltransferase; assay: Colorimetric CoA(GlcNAc-6-P) formation assay in crude A. fumigatus lysates; format: biochemical, Aspergillus fumigatus; settings: added to crude A. fumigatus lysates, FIG. 5
Description: A. fumigatus ATCC16424 (a human clinical isolate) was inoculated into liquid YG medium [1% (w/v) yeast extract and 1% (w/v) glucose] with 1×10^7 conidia per/mL (final concentration), and incubated for 18 hours at 37° C. with shaking (250 rpm). Hyphae were harvested by vacuum filtration over Whatman No. 2 filter paper, washed twice with ice-cold water, quick-frozen in dry ice, and stored at −80° C.
Frozen A. fumigatus hyphae were thawed and disrupted by bead-beating (6×30 seconds pulses with 2 minutes cooling between each pulse) using 0.5 mm zirconium beads in KI buffer (600 mM sucrose, 1 mM KCl, 1 mM EDTA, 50 mM PIPES, pH 6.8). The lysates were centrifuged at 1,000×g for 10 minutes at 4° C. The supernatants were stored at −80° C. and used as enzyme sources. The protein concentration of the supernatants was determined using the BioRad protein assay kit.
Reactions were performed in 96-well flat bottom microtiter plates containing 10 mM Glc-6-P, 10 mM glutamine, 200 μM AcCoA, and 0.25 mg/mL cell lysate of A. fumigatus at pH 6.8 in a final volume of 50 μL. […] After incubation for 10 minutes at room temperature, the OD412 was measured using a microtiter plate reader. […] The amount of CoA formed by reaction mixtures was calculated from the standard curve. […]

[7] = target: Chitin synthase; settings: competitive substrate inhibitors of chitin synthase; cited from earlier work
[8] = read-out: Fru-6-P Km, low ionic strength
[9] = competitive inhibitor, low ionic strength, read-out: Gluconate-6-P Ki

Chain of T. brucei PGI (P13377 whole entry): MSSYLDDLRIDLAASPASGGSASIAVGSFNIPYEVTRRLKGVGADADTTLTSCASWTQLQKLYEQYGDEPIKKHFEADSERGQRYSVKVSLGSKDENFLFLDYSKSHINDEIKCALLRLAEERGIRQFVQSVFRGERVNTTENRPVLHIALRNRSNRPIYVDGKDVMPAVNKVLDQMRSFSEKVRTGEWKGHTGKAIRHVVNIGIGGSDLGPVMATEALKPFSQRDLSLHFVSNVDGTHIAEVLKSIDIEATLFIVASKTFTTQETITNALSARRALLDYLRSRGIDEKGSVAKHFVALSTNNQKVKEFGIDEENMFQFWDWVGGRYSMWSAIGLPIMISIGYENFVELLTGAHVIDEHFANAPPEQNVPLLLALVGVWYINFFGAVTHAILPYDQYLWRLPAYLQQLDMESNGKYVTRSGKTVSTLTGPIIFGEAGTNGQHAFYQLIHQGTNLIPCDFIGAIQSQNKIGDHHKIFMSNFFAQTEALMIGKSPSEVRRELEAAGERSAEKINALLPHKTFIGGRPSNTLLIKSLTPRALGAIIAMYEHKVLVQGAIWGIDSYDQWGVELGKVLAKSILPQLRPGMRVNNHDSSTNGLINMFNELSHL
Chain of yeast phosphoglucose isomerase (P12709 2-554): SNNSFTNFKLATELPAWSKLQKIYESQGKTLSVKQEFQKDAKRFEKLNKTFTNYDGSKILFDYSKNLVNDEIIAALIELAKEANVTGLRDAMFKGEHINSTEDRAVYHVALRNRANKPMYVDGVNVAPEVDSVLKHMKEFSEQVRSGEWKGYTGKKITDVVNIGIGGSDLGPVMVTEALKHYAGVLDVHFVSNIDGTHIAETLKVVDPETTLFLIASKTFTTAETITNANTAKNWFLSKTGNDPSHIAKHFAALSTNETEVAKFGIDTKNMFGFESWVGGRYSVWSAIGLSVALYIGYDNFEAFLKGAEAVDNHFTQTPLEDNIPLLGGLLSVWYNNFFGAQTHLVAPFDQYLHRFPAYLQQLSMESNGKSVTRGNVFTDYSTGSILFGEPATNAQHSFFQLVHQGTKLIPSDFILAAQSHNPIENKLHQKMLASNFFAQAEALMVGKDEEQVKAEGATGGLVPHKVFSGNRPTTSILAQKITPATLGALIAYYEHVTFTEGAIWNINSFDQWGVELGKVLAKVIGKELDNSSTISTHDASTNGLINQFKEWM
Chain of Yeast PGI (P12709 2-554): as above
Chain of T. brucei phosphoglucose isomerase (P13377 whole entry): as the sequence (P13377 whole entry) above

O=C(NO)[C@@H](O)[C@H](O)[C@H](O)COP(=O)(O)O [D-Arabinohydroxamic acid-5-phosphate]
Ki ([1]; T. brucei PGI): 0.05 ± 0.009 µM
Km/Ki ([1]; T. brucei PGI): 2060
specificity for T. brucei phosphoglucose isomerase versus yeast isomerase ([1]; T. brucei versus yeast): 4.6 fold
Ki [2]: 0.23 ± 0.02 µM
Km/Ki [2]: 300

O=C(CO)[C@@H](O)[C@H](O)[C@H](O)COP(=O)(O)O [Fru-6-P, fructose-6-phosphate]
Km [3, 8]: 167 ± 48 µM
Km ([4]; read-out: Fru-6-P Km): 119 ± 28 µM
Km [5, 8]: 122 ± 45 µM

O=C(O)[C@H](O)[C@@H](O)[C@H](O)[C@H](O)COP(=O)(O)O [Gluconate-6-P, gluconate-6-phosphate]
inhibition of CoA (GlcNAc-6-P) formation [6]: inhibited the formation of CoA (GlcNAc-6-P) in a dose-dependent manner; also recorded: inhibited the production of CoA in a dose dependent manner
Ki [3, 9]: 480 ± 120 µM
Ki ([4]; competitive inhibitor, read-out: Gluconate-6-P Ki): 120 ± 30 µM
Ki [5, 9]: 140 ± 30 µM

polyoxins
inhibition constants (Ki) [7]: in the μM range

uridine diphosphate-N-acetyl glucosamine [UDP-GlcNAc]
inhibition of CoA (GlcNAc-6-P) formation [6]: inhibited the formation of CoA (GlcNAc-6-P) in a dose-dependent manner; also recorded: inhibited the production of CoA in a dose dependent manner
